The values that follow come from PubChem BioAssay AID624258 (Broad Institute, 2012).

A short description of the assay: SKN7 mediated toxicity in Saccharomyces cerevisiae, growth rescue counterscreen, dose confirmation (AID 624258).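 Further: growth read after three days of incubation at 30 °C; 0% = median of neutral control wells.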 The note with it: S. cerevisiae SKN7-toxicity growth rescue, plate reader. A general note: Counterscreens check selectivity or assay interference.

The source made the active and inactive calls. How the calls were made is not given here.

`CCCCCCC(Cl)(Cn1ccnc1)c1ccccc1` (stereo unspecified): the growth rescue activity (at 19.5 µM (top of the series)) is -69.6% (inactive).
As to `CCOC(=O)c1cnc(-n2nc(C)cc2C)nc1NC1CCCC1`, where the note is “at 19.5 µM (top of the series)”, the growth rescue activity is -62% (inactive).
In the case of `C(=C1c2ccccc2-c2ccccc21)c1ccncc1`, the growth rescue activity (at 19.5 µM (top of the series)) was -46.7% (inactive).
With `S=C1NC[C@H](c2ccccc2)N1CCCCC1CCCCC1`, the growth rescue activity (at 19.5 µM (top of the series)) is 85.2% (inactive).
For the molecule `CCCCNc1c(-c2cccc(Sc3ccc(OC)cc3)c2)nc2ccccn12`, for the setting “at 19.5 µM (top of the series)”, the growth rescue activity is -86.4% (inactive).
In the case of `CC(C)(C)n1nc(Cc2cccc3ccccc23)c2c(N)ncnc21`, the growth rescue activity (at 6.8 µM (top of the series)) is -49.1% (inactive).
Consider `O=C(NCc1ccncc1)c1ccccc1Nc1ccc(SC(F)F)cc1`, for which the growth rescue activity (at 19.5 µM (top of the series)) is -49.8% (inactive).
As for `CC1CCc2c(C(=O)Nc3ccccn3)csc2C1` (stereo unspecified), the growth rescue activity (at 19.5 µM (top of the series)) was -95.2% (inactive).
In the case of `Cc1cc(NS(=O)(=O)c2ccc(C3CCCCC3)cc2)no1`, the growth rescue activity (at 19.5 µM (top of the series)) was -38.7% (inactive).
Regarding `O=C(CCl)NCCCCCCCCCNC(=O)CCl`, for the setting “at 19.5 µM (top of the series)”, the growth rescue activity is 8.47% (inactive).
Regarding `Oc1cccc(/C=N/N(Cc2ccccc2)c2ccccc2)c1`, the growth rescue activity (at 19.5 µM (top of the series)) was -91.5% (inactive).
For the molecule `CCCCCCCn1c(=O)c(C(=O)OC)c(N)c2ccccc21`, where the note is “at 19.5 µM (top of the series)”, the growth rescue activity is -87.1% (inactive).
For the molecule `O=S(=O)(O)c1cc(Cl)cc(N=Nc2ccc(O)cc2O)c1O`, under “at 19.5 µM (top of the series)”, the growth rescue activity was 41.4% (inactive).
Turning to `C[C@]12CCC(=O)C=C1CCC1C2CC[C@@]2(C)C1CC[C@]2(C)O` (stereo partly specified), where the note is “at 19.5 µM (top of the series)”, the growth rescue activity was -16.5% (inactive).
For the molecule `CC1(C)C(C=C(Cl)Cl)C1C(=O)N1CCN(c2ccccc2)CC1` (stereo unspecified), the growth rescue activity (at 19.5 µM (top of the series)) was 6.49% (inactive).
The same measure, in the same setting: for `Cc1cc(O)c(-c2cc(O)c(C)cc2O)cc1O` the value was -8.5% (inactive); for `C[C@]12CC[C@H](O)CC1=CCC1C2CC[C@@]2(C)C1CC[C@@H]2NC(=O)[C@@H](N)Cc1cnc[nH]1` (stereo partly specified), 26.3% (inactive); for `CCC(C)n1ncn(-c2ccc(N3CCN(c4ccc(OCC5COC(Cn6cncn6)(c6ccc(Cl)cc6Cl)O5)cc4)CC3)cc2)c1=O` (stereo unspecified), -70.7% (inactive).
On to `c1ccc(CSc2ccc(-c3ccccn3)nn2)nc1`, for which the growth rescue activity (at 19.5 µM (top of the series)) is -28% (inactive).
The same measure, in the same setting: then `COc1ccccc1-c1sc2cc3c(cc2c1C#Cc1cncn1C)OCO3`, with -72% (inactive).
For the molecule `COc1cc2c(cc1OC)C(C)N(C(=O)c1cccc([N+](=O)[O-])c1)CC2` (stereo unspecified), the growth rescue activity (at 6.8 µM (top of the series)) was -17.8% (inactive).
`CC1CC(=Cc2ccc([N+](=O)[O-])cc2)C(=O)O1` (stereo unspecified): under “at 19.5 µM (top of the series)”, the growth rescue activity is 2.43% (inactive).
In the case of `O=C(/C(=N/N=C/c1ccc(O)c(O)c1O)c1ccccc1)c1ccccc1`, the growth rescue activity (at 19.5 µM (top of the series)) was -75.4% (inactive).
As for `Cc1cccc(/C=N/NC(=O)C(C)Nc2cccc3ccccc23)n1` (stereo unspecified), the growth rescue activity (at 19.5 µM (top of the series)) was -1.71% (inactive).
Turning to `COc1ccc(S(=O)(=O)Nc2cc(SCC(=O)O)c(O)c3ccccc23)cc1`, the growth rescue activity (at 19.5 µM (top of the series)) is 4.66% (inactive).
For `COCCn1c(=NC(=O)CSC(C)=O)sc2cc(F)ccc21`, the growth rescue activity (at 19.5 µM (top of the series)) is 56.5% (inactive).
`CCOC(=O)N1C(=O)C2(CCCCC2)N(c2ccccc2Cl)C1=S`: where the note is “at 19.5 µM (top of the series)”, the growth rescue activity was -49.5% (inactive).
With `CCCn1c2ccccc2c2cc(C(=O)O)ccc21`, the growth rescue activity (at 6.8 µM (top of the series)) is -29.3% (inactive).
For `O=C(NCCCNc1ccc(C(F)(F)F)cc1[N+](=O)[O-])c1ccc(Cl)cc1`, the growth rescue activity (at 19.5 µM (top of the series)) was -14.8% (inactive).
Turning to `Cc1cc(C(=O)COC(=O)Cc2n[nH]c(=O)c3ccccc23)c(C)n1-c1cccc(C(F)(F)F)c1`, the growth rescue activity (at 6.8 µM (top of the series)) was -21.5% (inactive).
As for `CCC(=O)NC(c1ccco1)c1cc(Cl)c2cccnc2c1O` (stereo unspecified), for the setting “at 19.5 µM (top of the series)”, the growth rescue activity is -49.4% (inactive).
As for `CC(=O)Nc1cccc(NC(=O)CSc2ccc(-c3ccccn3)nn2)c1`, the growth rescue activity (at 19.5 µM (top of the series)) was -39.9% (inactive).
Turning to `Cc1nc2ccc(C(=O)NCc3ccc4c(c3)OCO4)cc2s1`, the growth rescue activity (at 19.5 µM (top of the series)) is -2.94% (inactive).
Turning to `CN(Cc1cccc(F)c1)C(=O)c1ccc(S(=O)(=O)N2CCCCCC2)cc1`, under “at 19.5 µM (top of the series)”, the growth rescue activity is -8.45% (inactive).
As to `O=C(CSc1ccc(-c2ccccn2)nn1)NCc1ccc(Cl)cc1`, for the setting “at 19.5 µM (top of the series)”, the growth rescue activity is -56.5% (inactive).
As to `O=c1c(/C=N/O)coc2ccc(Cl)cc12`, the growth rescue activity (at 19.5 µM (top of the series)) was -4.03% (inactive).
Still for that read-out and setting: then `COc1cc2c(cc1OC)C(C)N(C(=O)C1COc3ccccc3O1)CC2` (stereo unspecified), with 14.6% (inactive).
As for `CN(C)CCCNc1cc(C(C)(C)C)nc2c(-c3ccc(Cl)cc3)cnn12`, for the setting “at 6.8 µM (top of the series)”, the growth rescue activity was 14.1% (inactive).
`C=CCN(CC=C)C(=S)NC(=O)c1ccc(C)c(Br)c1`: for the setting “at 19.5 µM (top of the series)”, the growth rescue activity is -13.6% (inactive).
With `COc1ccc(N(C(=O)c2ccncc2)S(=O)(=O)c2ccccc2)cc1`, the growth rescue activity (at 19.5 µM (top of the series)) was -61.4% (inactive).
Turning to `COc1cccc2c1C(=O)c1c(O)c3c(c(O)c1C2=O)C[C@@](O)(C(C)=O)C[C@@H]3O[C@H]1C[C@H](N)[C@H](O)[C@H](C)O1`, the growth rescue activity (at 19.5 µM (top of the series)) was 23.7% (inactive).
